Values quoted from earlier work in patent US20050084547A1, “Natural product based apoptosis inducers” (PhytoMyco Research Corporation, priority 2003, published 2005).

System: human leukemia HL-60 cells
Conditions: microscopy, flow cytometry, DNA fragmentation assay

CC(=O)OC(C1CO1)C(OC(C)=O)C1CO1 (stereo not shown) [DADAG, diacetyldianhydrogalactitol]
apoptosis induction: induced apoptosis in the HL-60 cells
